{"source": "patent US20110301116A1", "about": "“NSAIDS-INDUCED GASTROINTESTINAL MUCOSAL DISORDER ALLEVIATOR AND MANUFACTURING METHOD THEREOF” (THE UNIVERSITY OF TOKYO, priority 2008, published 2011)", "key": {"[1]": {"test_system": "gastric mucosal disorder (ulcer) induced by NSAIDs", "assay": "Gastric mucosal disorder in rats: NSAID alone, mixture with trehalose, lyophilized with trehalose (Working Example 2)", "type": "in vivo", "settings": "rat, oral, 5 hours, trehalose 800 mg/kg", "description": "The liquid doses were prepared on the date when the examination was executed. Weighted NSAIDs were suspended or dissolved into 0.5% CMC.Na solution to prepare doses of administrating NSAIDs only. Suspension of NSAIDs and solution of trehalose were prepared. […] For each groups the amount of dose was 8 mL per kg or rat.\n(§1) We bought Winster male rats (Japan SLC) that were 8 weeks old. We breed these rats keeping 20 to 26 degrees C., humidity of 30 to 70%, housing 2 to 3 rats in a rat breeding gage (mouse and rat breeding CE-2), giving enough amount of filtered tap water. After breeding 7 days, 5 to 10 rats per group were picked to execute the example. The rats were fasting for 24 hours without giving no food and then the rats were fed no food and no water for 1 hour just before the examination.\n(§2) From 11 am on the previous day of the examination date, the rats were kept fasting and test substances were fed though mouse. After 5 hours passed, these rats were killed by carbon dioxide gas and stomachs were picked up. The duodenums were tagged. 6 mL of neutral formalin were poured from the esophagi so as to fix the stomachs for 30 minutes. The stomachs were cut along with the greater curvature. The cut stomachs were gently washed by saline, the presence of blood spot were observed by a stereoscopic microscope.\nThe area of blood spots was measured by 0.5 mm×0.5 mm unit as an index of ulcer and the sum of each animals was calculated. The rate of suppressed ulcer was calculated, using the ulcer index for the group in which each of test samples were given and the group in which trehalose was also given, in accordance with the following equation.\n(§3) Rate of suppressed ulcer(%)=[1−A/B]×100 • […]"}, "[2]": {"test_system": "stomach ulcer model induced by NSAIDs", "assay": "Stomach ulcer induced by NSAIDs in rats, lyophilized NSAID and trehalose vs NSAID alone (Working Example 1)", "type": "in vivo, rat", "settings": "trehalose 800 mg/kg, oral, 5 hours, average±standard deviation", "description": "Each of the test substances were adjusted by suspending or dissolving them into 0.5% CMC.Na solution. Each of 9 mL of Liquid doses was given per 1 kg weight by oral dose. 0.5% CMC.Na solutions were given to control group.\nas §1\nas §2, with “formalin was” for “formalin were”, “microscope. The area of blood spots was measured by 0.5 mm×0.5 mm unit as an index of ulcer and the sum of each animal was calculated. The rate of suppressed ulcer was calculated, using the ulcer index for the group in which each of test sample was given and the group in which trehalose was also given, in accordance with the following equation.” for “microscope.”\nas §3"}}, "data": [{"smiles": "CC(=O)Oc1ccccc1C(=O)O", "note": "[Aspirin alone, aspirin]", "values": [{"measurement": "Ulcer index (mm^2, average ± standard deviation)", "setting": "[1]; aspirin 200 mg/kg", "result": "10.40 ± 2.73", "unit": "mm^2"}, {"measurement": "Ulcer index (mm^2, average ± standard deviation)", "setting": "[1]; aspirin 200 mg/kg, listed as aspirin alone", "result": "10.40±2.73", "unit": "mm^2"}, {"measurement": "ulcer (area of blood spots, ulcer index)", "setting": "[2]; stomach ulcer model induced by aspirin, aspirin 200 mg/kg", "result": "10.40±2.80", "unit": "mm^2"}]}, {"smiles": "O=C(O)Cc1ccccc1Nc1c(Cl)cccc1Cl", "note": "[Diclofenac alone, sodium diclofenac]", "values": [{"measurement": "Ulcer index (mm^2, average ± standard deviation)", "setting": "[1]; diclofenac 40 mg/kg", "result": "4.30 ± 0.71", "unit": "mm^2"}, {"measurement": "Ulcer index (mm^2, average ± standard deviation)", "setting": "[1]; diclofenac 40 mg/kg, listed as diclofenac alone", "result": "4.30±0.71", "unit": "mm^2"}, {"measurement": "ulcer (area of blood spots, ulcer index)", "setting": "[2]; stomach ulcer model induced by diclofenac, diclofenac 40 mg/kg", "result": "4.30±0.71", "unit": "mm^2"}]}, {"smiles": "COc1ccc2c(c1)c(CC(=O)O)c(C)n2C(=O)c1ccc(Cl)cc1", "note": "[Indomethacin alone, indomethacin]", "values": [{"measurement": "Ulcer index (mm^2, average ± standard deviation)", "setting": "[1]; indomethacin 30 mg/kg", "result": "4.83 ± 0.90", "unit": "mm^2"}, {"measurement": "Ulcer index (mm^2, average ± standard deviation)", "setting": "[1]; indomethacin 30 mg/kg, listed as indomethacin alone", "result": "4.83±0.90", "unit": "mm^2"}, {"measurement": "ulcer (area of blood spots, ulcer index)", "setting": "[2]; stomach ulcer model induced by indomethacin, indomethacin 30 mg/kg", "result": "4.83±0.90", "unit": "mm^2"}]}, {"smiles": "CC(C)Cc1ccc(C(C)C(=O)O)cc1", "note": "(stereo not shown) [ibuprofen alone, ibuprofen]", "values": [{"measurement": "ulcer (area of blood spots, ulcer index)", "setting": "[2]; stomach ulcer model induced by ibuprofen, ibuprofen 400 mg/kg", "result": "5.35±1.86", "unit": "mm^2"}]}]}
